Reference: ChEMBL document CHEMBL1201862, “PubChem BioAssay data set” (2004)
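All cell lines were grown in 96-well plates and treated with compound for 48 hours. GI50: concentration for 50% inhibition of growth.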 The source made the active and inactive calls. Cut-off read from the data, not from the text of the source: active = GI50 up to about 1.1 µM and inactive = higher.

Columns and labels:
Test in all cases: growth of human tumour cells (NCI), 48 h
[1] = tested on: 786-0
[2] = tested on: A498
[3] = tested on: A549
[4] = tested on: CAKI-1
[5] = tested on: CCRF-CEM
[6] = tested on: COLO 205
[7] = tested on: DLD-1
[8] = tested on: DMS-114
[9] = tested on: DMS-273
[10] = tested on: EKVX
[11] = tested on: HCC 2998
[12] = tested on: HCT-116
[13] = tested on: HL-60
[14] = tested on: HOP-18
[15] = tested on: HOP-62
[16] = tested on: IGROV-1
[17] = tested on: K562
[18] = tested on: KM-20L2
[19] = tested on: KM12
[20] = tested on: LOX IMVI
[21] = tested on: LXFL 529
[22] = tested on: M14
[23] = tested on: M19-MEL
[24] = tested on: MOLT-4
[25] = tested on: Malme-3M
[26] = tested on: NCI-H226
[27] = tested on: NCI-H23
[28] = tested on: NCI-H460
[29] = tested on: NCI-H522
[30] = tested on: OVCAR-3
[31] = tested on: OVCAR-4
[32] = tested on: OVCAR-5
[33] = tested on: OVCAR-8
[34] = tested on: RPMI-8226
[35] = tested on: RXF 393
[36] = tested on: SF-268
[37] = tested on: SF-295
[38] = tested on: SF-539
[39] = tested on: SK-MEL-28
[40] = tested on: SK-MEL-2
[41] = tested on: SK-MEL-5
[42] = tested on: SK-OV-3
[43] = tested on: SN12C
[44] = tested on: SNB-19
[45] = tested on: SNB-75
[46] = tested on: SNB-78
[47] = tested on: SW-620
[48] = tested on: TK-10
[49] = tested on: U-251
[50] = tested on: UACC-257
[51] = tested on: UACC-62
[52] = tested on: UO-31
[53] = tested on: XF498
[54] = tested on: ACHN
[55] = tested on: HCT-15
[56] = tested on: HOP-92
[57] = tested on: HT-29
[58] = tested on: SR

In the case of `CCOC(=O)C1=C(Nc2ccc(Cl)c(Cl)c2)OC/C1=N\NC(=O)Cc1ccccc1`, the GI50 [1] is reported as > 100 µM (inactive), the GI50 [2] is reported as > 100 µM (inactive) and the GI50 [3] is reported as > 100 µM (inactive). For the same compound, the GI50 [4] was > 100 µM (inactive), the GI50 [5] was > 100 µM (inactive) and the GI50 [6] was > 100 µM (inactive). For the same compound, the GI50 [7] was > 100 µM (inactive), the GI50 [8] was > 100 µM (inactive) and the GI50 [9] was > 100 µM (inactive). The GI50 [10] was > 100 µM (inactive), the GI50 [11] was > 100 µM (inactive) and the GI50 [12] was 99.8 µM (inactive). The GI50 [13] was > 100 µM (inactive), the GI50 [14] was 87.7 µM (inactive) and the GI50 [15] was > 100 µM (inactive). The GI50 [16] was > 100 µM (inactive), the GI50 [17] was 89.1 µM (inactive) and the GI50 [18] was > 100 µM (inactive). For the same compound, the GI50 [19] was > 100 µM (inactive), the GI50 [20] was > 100 µM (inactive) and the GI50 [21] was > 100 µM (inactive). For the same compound, the GI50 [22] was > 100 µM (inactive), the GI50 [23] was > 100 µM (inactive) and the GI50 [24] was 61.1 µM (inactive). The GI50 [25] was > 100 µM (inactive), the GI50 [26] was > 100 µM (inactive) and the GI50 [27] was > 100 µM (inactive). The GI50 [28] was > 100 µM (inactive), the GI50 [29] was > 100 µM (inactive) and the GI50 [30] was > 100 µM (inactive). For the same compound, the GI50 [31] was > 100 µM (inactive), the GI50 [32] was > 100 µM (inactive) and the GI50 [33] was > 100 µM (inactive). The GI50 [34] was 68.7 µM (inactive), the GI50 [35] was > 100 µM (inactive) and the GI50 [36] was > 100 µM (inactive). The GI50 [37] was > 100 µM (inactive), the GI50 [38] was > 100 µM (inactive) and the GI50 [39] was > 100 µM (inactive). The GI50 [40] was > 100 µM (inactive), the GI50 [41] was > 100 µM (inactive) and the GI50 [42] was > 100 µM (inactive). For the same compound, the GI50 [43] was > 100 µM (inactive), the GI50 [44] was > 100 µM (inactive) and the GI50 [45] was > 100 µM (inactive). For the same compound, the GI50 [46] was > 100 µM (inactive), the GI50 [47] was > 100 µM (inactive) and the GI50 [48] was > 100 µM (inactive). The GI50 [49] was > 100 µM (inactive), the GI50 [50] was 63.7 µM (inactive) and the GI50 [51] was > 100 µM (inactive). The GI50 [52] was 56.2 µM (inactive) and the GI50 [53] was > 100 µM (inactive).

`C=C(C)C1Cc2c(cc(OC)c3c(=O)c4ccccc4n(C)c23)O1` (stereo not given) was tested, and the GI50 [1] was > 100 µM (inactive), the GI50 [2] was > 100 µM (inactive) and the GI50 [3] was > 100 µM (inactive). For the same compound, the GI50 [54] was 58.3 µM (inactive), the GI50 [4] was > 100 µM (inactive) and the GI50 [5] was > 100 µM (inactive). For the same compound, the GI50 [6] was > 100 µM (inactive), the GI50 [7] was > 100 µM (inactive) and the GI50 [8] was 91.8 µM (inactive). The GI50 [9] was 91.6 µM (inactive), the GI50 [10] was > 100 µM (inactive) and the GI50 [11] was > 100 µM (inactive). The GI50 [12] was > 100 µM (inactive), the GI50 [55] was 83.6 µM and the GI50 [13] was > 100 µM (inactive). For the same compound, the GI50 [14] was > 100 µM (inactive), the GI50 [15] was > 100 µM (inactive) and the GI50 [56] was > 100 µM (inactive). The GI50 [57] was > 100 µM (inactive), the GI50 [16] was > 100 µM (inactive) and the GI50 [17] was 57.5 µM (inactive). The GI50 [18] was > 100 µM (inactive), the GI50 [19] was > 100 µM (inactive) and the GI50 [20] was 47.3 µM (inactive). For the same compound, the GI50 [21] was > 100 µM (inactive), the GI50 [22] was > 100 µM (inactive) and the GI50 [23] was 63.7 µM (inactive). For the same compound, the GI50 [25] was > 100 µM (inactive), the GI50 [26] was > 100 µM (inactive) and the GI50 [27] was > 100 µM (inactive). The GI50 [28] was > 100 µM (inactive), the GI50 [29] was 18.3 µM (inactive) and the GI50 [30] was > 100 µM (inactive). For the same compound, the GI50 [31] was > 100 µM (inactive), the GI50 [32] was > 100 µM (inactive) and the GI50 [33] was > 100 µM (inactive). For the same compound, the GI50 [34] was > 100 µM (inactive), the GI50 [35] was > 100 µM (inactive) and the GI50 [36] was > 100 µM (inactive). The GI50 [37] was > 100 µM (inactive), the GI50 [38] was > 100 µM (inactive) and the GI50 [39] was 49 µM (inactive). The GI50 [40] was > 100 µM (inactive), the GI50 [41] was > 100 µM (inactive) and the GI50 [42] was > 100 µM (inactive). For the same compound, the GI50 [43] was > 100 µM (inactive), the GI50 [44] was > 100 µM (inactive) and the GI50 [45] was 70 µM (inactive). The GI50 [46] was > 100 µM (inactive), the GI50 [58] was > 100 µM (inactive) and the GI50 [47] was > 100 µM (inactive). For the same compound, the GI50 [48] was > 100 µM (inactive), the GI50 [49] was > 100 µM (inactive) and the GI50 [50] was > 100 µM (inactive). The GI50 [51] was 37.8 µM (inactive), the GI50 [52] was > 100 µM (inactive) and the GI50 [53] was > 100 µM (inactive).
